# Several values for one entry are separate records, joined by “and”; a condition that tells them apart may be missing. Equal values may be shown once. Entries after “also recorded” stand apart in the source; their conditions may differ. Read-outs that look alike come from different tables or passages of the source. Square brackets hold non-standard residues; d marks the D form. Peptide text beside a SMILES is read from it. * marks the point of attachment. Fmoc = O=C(OCC1c2ccccc2-c2ccccc21)*; Cha = N[C@@H](CC1CCCCC1)C(=O)O; AMC = Cc1cc(=O)oc2cc(N*)ccc12
# Legend:
# [1] = test system: galanin mRNA; assay: Quantitative real time PCR of galanin mRNA in rat brain regions after treatment; assay type: in vivo
# Experimental: (§1) Tissue dissections. Tissues used for RNA extraction or binding study were rapidly dissected after sacrifice and immediately frozen on dry ice. All dissections were performed by an experienced neuroanatomist with a rat brain slicer and for small structures, like LC and DRN, the punching method was used to assure reproducible dissection.
# Quantitative real time PCR. Brain tissues obtained from 12 rats (DRN, LC, paraventricular nucleus of hypothalamus) or 6 rats (prefrontal cortex, amygadala, hippocampus) were pooled and total RNA was prepared with Trizol reagent (Invitrogen, Carlsbad, Calif.) following manufacturer's instructions. For galanin mRNA quantification in DRN and LC after FLX treatment, the experiment was repeated with 3 independent pools of 4 rats per treatment per brain region. Aliquots of total RNA (2 μg) and oligo(dT) primers were then reverse transcribed with ThermoScript RT (Invitrogen) at 51° C. for 60 minutes. Quantitative PCR was performed using a Roche LightCycler and LightCycler Fast Start DNA Master SYBR Green I mix (Roche Applied Science, Indianapolis, Ind.). […] Real time PCR assays included an initial 10 minutes, 94° C. step to activate Taq polymerase, followed by 35 cycles of denaturation 94° C., 10 seconds, annealing 58° C., 10 seconds, and extension 72° C., 25 seconds. The results were expressed in arbitrary units normalized by the expression levels of the reference gene, β-actin.
# (§2) Drug treatments. Fluoxetine (FLX, Sigma, St. Louis, Mo.) was dissolved in saline and administered i.p. at a dose of 10 mg/kg daily for 14 days for biochemical studies. Separate groups of rats received daily i.p. injections of FLX or saline vehicle for 14 days for testing in the forced swim task. On day 14, rats were administered FLX or saline i.p. at 45 minutes prior to the forced swim test and M40 (Bachem, King of Prussia, Pa.) or ACSF i.c.v. at 15 minutes prior to the forced swim test (see methods below). Single i.c.v. microinjections of M40 (8 nmol/2 μl ACSF) or ACSF (2 μl) were performed with a 10 μl Hamilton syringe connected via Becton Dickinson polyethylene tubing (PE20) to a 1.5 cm injector (Plastics One) fabricated from 31 gauge hypodermic tubing. The animal was allowed to freely explore a small cage during the infusion of 2 μl over 1.5 minutes, with each 1 μl separated by ten seconds, and an additional sixty seconds before the injector was withdrawn from the guide cannula. The treatments consisted of equal numbers of rats receiving one of the following combinations of treatments: saline+ACSF, saline+M40, FLX+ACSF, or FLX+M40. […] One week after the forced swim test, rats were randomly assigned to treatment groups. Rats were treated with vehicle, galnon or desipramine. Forty five minutes after injection, rats were subjected to the open field test.
# [2] = test system: GalR2 sites; assay: GalR2 binding sites in brain tissue after treatment, saturating [125I]galanin binding with galanin (2-11) as competitor; assay type: in vivo, rat; conditions: FLX 10 mg/kg i.p. 14 days
# Experimental: as §1
# (§3) Membrane preparation and binding assay. DRN and LC were dissected from a total of 16 rats per group and samples from 4 animals were pooled. […] Incubations were at room temperature for 45 minutes and terminated by rapid filtration through glass fiber filters (Packard, Meriden, Conn.). After three washes with cold PBS (pH 7.4) containing 0.01 % (v/v) Triton X 100, the filter was counted with Cobra II auto Gamma counting systems (Parkard Bioscience, Downer Grove, Ill.).
# (§4) Neurol. […] Anxiety 2000, 12, 170-7; Nolen, W. A., et al. Int. Clin. Psychopharmacol. […] Neurol. […] As GalR3 is not abundant in the regions tested, GalR1 sites were estimated by subtracting GalR2 sites from the sum of GalR1 and GalR2 receptor sites. […] Neurol.
# (§5) Drug treatments. Fluoxetine (FLX, Sigma, St. Louis, Mo.) was dissolved in saline and administered i.p. at a dose of 10 mg/kg daily for 14 days for biochemical studies. Separate groups of rats received daily i.p. injections of FLX or saline vehicle for 14 days for testing in the forced swim task. […]
# [3] = test system: GalR1 sites; assay: GalR1 binding sites in brain tissue after treatment, total galanin-binding sites minus GalR2 sites; assay type: in vivo; conditions: rat DRN, FLX 10 mg/kg i.p. 14 days
# Experimental: as §1, §3, §4, §5
# [4] = test system: time spent active in forced swim test; assay: Forced swim test; assay type: in vivo, rat
# Experimental: Rats underwent aseptic stereotaxic surgery under ketamine (100 mg/kg, i.p.) xylazine (10 mg/kg, i.p.) anesthesia. A guide cannula 1.4 cm in length, of 26 gauge stainless steel hypodermic tubing (Plastics One, St. Louis, Mo.) was implanted into the right lateral ventricle at coordinates 0.5 mm posterior, 1.0 mm lateral to bregma, and 3.5 mm ventral to the surface of the skull. A 31 gauge stylet was secured to the guide cannula following the surgery. After surgery, rats were given at least 8 days recovery before the start of behavioral testing.
# Fluoxetine (FLX, Sigma, St. Louis, Mo.) was dissolved in saline and administered i.p. at a dose of 10 mg/kg daily for 14 days for biochemical studies. Separate groups of rats received daily i.p. injections of FLX or saline vehicle for 14 days for testing in the forced swim task. On day 14, rats were administered FLX or saline i.p. at 45 minutes prior to the forced swim test and M40 (Bachem, King of Prussia, Pa.) or ACSF i.c.v. at 15 minutes prior to the forced swim test (see methods below). Single i.c.v. microinjections of M40 (8 nmol/2 μl ACSF) or ACSF (2 μl) were performed with a 10 μl Hamilton syringe connected via Becton Dickinson polyethylene tubing (PE20) to a 1.5 cm injector (Plastics One) fabricated from 31 gauge hypodermic tubing. The animal was allowed to freely explore a small cage during the infusion of 2 μl over 1.5 minutes, with each 1 μl separated by ten seconds, and an additional sixty seconds before the injector was withdrawn from the guide cannula. The treatments consisted of equal numbers of rats receiving one of the following combinations of treatments: saline+ACSF, saline+M40, FLX+ACSF, or FLX+M40. Additional treatment groups (n=10 per group) were examined in a separate forced swim test 45 minutes after i.p. injection of one of the following: 50% DMSO (w/v), galnon (Vulpes, Estonia; dissolved in 50% DMSO), or desipramine (Sigma, St Louis, Mo., 15 mg/kg in 50% DMSO).
# Forced swim test. Rats were placed singly in a cylindrical glass container (48 cm height, 21 cm diameter) with tap water (25° C.) to a depth of 27 cm and tested for 10 minutes. Water was changed and the cylinder thoroughly rinsed after each test. Tests were recorded on videotape and later scored by an experienced observer blind to the experimental conditions of the rats.
# Data for forced swim test studies utilizing galnon and desipramine were subject to a one factor analysis of variance (ANOVA), with drug treatment as the between subjects factor. For the M40 FLX study, data were subject to a two factor between subjects design, with chronic drug treatment (FLX vs vehicle) and i.c.v. drug (M40 vs ACSF) as the main factors. Significant main effects were followed up with Fisher's LSD posthoc test to determine specific group differences.
# [5] = molecular target: T1, rat GalR2 (Rattus norvegicus, UniProt O08726); assay: Displacement of [125I]galanin binding from membranes of GalR2-expressing cells; conditions: data not shown
# T1 construct: expressed in transfected cells; host or cells: CHO cells, stably transfected
# T1 sequence (O08726 1-372): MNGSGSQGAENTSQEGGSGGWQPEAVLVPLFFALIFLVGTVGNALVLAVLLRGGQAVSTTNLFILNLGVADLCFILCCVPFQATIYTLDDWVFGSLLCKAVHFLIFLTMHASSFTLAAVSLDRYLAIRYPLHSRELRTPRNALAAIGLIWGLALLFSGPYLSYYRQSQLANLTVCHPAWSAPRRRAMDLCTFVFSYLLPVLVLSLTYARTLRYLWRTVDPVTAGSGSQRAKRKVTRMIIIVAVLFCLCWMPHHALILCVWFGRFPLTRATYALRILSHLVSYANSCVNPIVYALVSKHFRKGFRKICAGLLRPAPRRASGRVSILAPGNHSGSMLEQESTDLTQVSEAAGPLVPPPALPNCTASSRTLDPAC
# Excerpt: Cell lines. Stably transfected Chinese Hamster Ovary (CHO) cells expressing rat GalR2, and Bowes' melanoma cells that express human GalR1, were cultivated as described earlier (Wang, S., et al. Biochemistry 1998, 37, 6711-7; and Heuillet, E., et al. Eur. J. Pharmacol. 1994, 269, 139-47).
# Membrane preparation and binding assay. DRN and LC were dissected from a total of 16 rats per group and samples from 4 animals were pooled. Rat brain synaptic membranes (Lu, X., et al. Neurosci. Lett. 2000, 286, 149-53) and cells were prepared as previously described (Heuillet, E., et al. Eur. J. Pharmacol. 1994, 269, 139 47). Equilibrium binding of ^125I, galanin (2200 Ci/mmol, PerkinElmer Life Science, Boston, Mass.) to hippocampal membrane preparations was performed in 150 μL binding buffer [50 mM Tris Cl (pH 7.4), 5 mM MgCl2, 0.05 % (w/v) bovine serum albumin, supplemented with protease inhibitors]. Incubations were at room temperature for 45 minutes and terminated by rapid filtration through glass fiber filters (Packard, Meriden, Conn.). After three washes with cold PBS (pH 7.4) containing 0.01 % (v/v) Triton X 100, the filter was counted with Cobra II auto Gamma counting systems (Parkard Bioscience, Downer Grove, Ill.).
# [6] = test system: locomotor activity (line crossing); assay: Open field test; assay type: in vivo, rat; conditions: for locomotor activity in the open field (words): desipramine 15 mg/kg
# Experimental: as §2, with “treatments. […]” for “treatments. Fluoxetine (FLX, Sigma, St.”, “and […]” for “and M40”, “or […].” for “or ACSF i.c.v.”, “or FLX+[…].” for “or FLX+M40.”, “groups. […]” for “groups. Rats were treated with vehicle, galnon or desipramine.”, “test. Open field test. One week after the forced swim test, rats were randomly assigned to treatment groups. […] The apparatus consisted of a square arena (100 by 100 cm), with a 40 cm high opaque white wall. The floor was marked into 9 equal segments and fluorescent light provided diffuse overhead illumination. Locomotor activity over 5 minutes was recorded on videotape. Tapes were later scored blind to the experimental condition of the animals. Line crossing behavior (defined as at least three paws in a square) was tallied and compared between experimental conditions.” for “test.”
# [7] = test system: withdrawal signs; conditions: Zachariou et al. 2003, cited from earlier work
# [8] = test system: seizures; conditions: Saar et al. 2002; cited from earlier work
# [9] = test system: time spent active in forced swim test; conditions: dose that suppresses status epilepticus; Bartfai et al. 2004; cited from earlier work
structure (smiles),measurement,setting,value
"CNCCC(Oc1ccc(C(F)(F)F)cc1)c1ccccc1 (stereo not shown) [FLX, fluoxetine]",increase in galanin mRNA levels in DRN,"[1]; rat DRN, FLX 10 mg/kg i.p. 14 days",100%
same,increase in galanin mRNA levels in DRN,"[1]; rat DRN, FLX 10 mg/kg i.p. 14 days, pooled samples",2 fold
same,effect on galanin mRNA in DRN,"[1]; rat DRN, FLX 14 days, three independent pools, P<0.05 vs Ctrl",increased galanin mRNA
same,increase in galanin mRNA levels in LC,"[1]; rat LC, FLX 10 mg/kg i.p. 14 days, pooled samples",2.2 fold
same,effect on galanin mRNA in LC,"[1]; rat LC, FLX 14 days",increased galanin mRNA
same,increase in number of GalR2 binding sites in DRN,[2]; rat DRN,50% and 58%
same,effect on GalR2 sites in LC,[2]; rat LC,not in LC
same,effect on number of GalR1 binding sites in DRN,[3],without changes; also recorded: unaltered
same,increase in time spent active in the forced swim test vs saline-pretreated rats,"[4]; FLX 10 mg/kg i.p. 14 days, 10 minute test, P<0.05",~46%
same,time spent active in the forced swim test,"[4]; FLX 10 mg/kg i.p. 14 days, FLX+ACSF vs Saline+ACSF, p<0.05",significant increase
Cc1cc(=O)oc2cc(NC(=O)[C@H](CCCCN)NC(=O)[C@H](CC3CCCCC3)NC(=O)OCC3c4ccccc4-c4ccccc43)ccc12 [galnon] (Fmoc-[Cha]-Lys-{AMC}),Ki,[5],34.1 µM
same,increase in activity in the forced swim test,"[4]; galnon 20 mg/kg i.p., p<0.05",significant
same,increase in activity in the forced swim test,"[4]; galnon 40 mg/kg i.p., p<0.01",significant
same,activity in the forced swim test,"[4]; galnon 1-40 mg/kg i.p., 45 minutes after injection",significant increase; also recorded: dose dependent increase
same,activity in the open field,"[6]; galnon 20 mg/kg, p<0.01",significantly reduced
same,activity in the open field,"[6]; galnon 40 mg/kg, p<0.05",significantly reduced
same,activity in the open field,"[6]; higher doses of galnon, P<0.05 vs control",significantly reduced activity
same,effect on withdrawal signs (words),[7],attenuate several withdrawal signs
same,effect on withdrawal signs (words),[7]; listed as Galnon,inhibit signs of opiate withdrawal
same,latency of phenyleneterazol induced seizures,[8],increase the latency
CNCCCN1c2ccccc2CCc2ccccc21 [desipramine],activity in the forced swim test,"[4]; desipramine 15 mg/kg i.p., positive control",significantly increased activity
same,increase in activity in the forced swim test,"[4]; desipramine 15 mg/kg i.p., positive control, p<0.001",125%
same,locomotor activity in the open field (words),[6]; p<0.01,significantly reduced activity
same,locomotor activity in the open field (words),"[6]; p<0.01, listed as Desipramine",significant reduction
COC(=O)[C@H](CCCCN)NC(=O)[C@]1(C)NC(=O)c2nc(oc2C)[C@](C)(C(=O)NC2c3ccccc3-c3ccccc32)NC(=O)c2nc(oc2C)[C@](C)(C(=O)NCC2CCCCC2)NC(=O)c2nc1oc2C [galmic],effect in the forced swim test,[9],antidepressant like effect

# Reference: patent US20060177853A1, “Antidepressant drug target” (The Scripps Research Institute, priority 2005, published 2006)
